PubChem BioAssay (NCI)
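Tested at 5 concentrations; 48 h exposure; 96-well plates; endpoints linearly interpolated, else capped at highest concentration. TGI: concentration producing complete growth inhibition.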

What was measured:
Assay in all cases: NCI tumour cell line growth inhibition, 48 h
[1] = system: 786-0 renal
[2] = system: A498 renal
[3] = system: A549 NSCLC
[4] = system: ACHN renal
[5] = system: CCRF-CEM leukemia
[6] = system: DLD-1 colon
[7] = system: EKVX NSCLC
[8] = system: HCC-2998 colon
[9] = system: HCT-116 colon
[10] = system: HCT-15 colon
[11] = system: HOP-18 NSCLC
[12] = system: HOP-62 NSCLC
[13] = system: HT29 colon
[14] = system: IGROV1 ovarian
[15] = system: K-562 leukemia
[16] = system: KM12 colon
[17] = system: KM20L2 colon
[18] = system: LXFL 529 NSCLC
[19] = system: M14 melanoma
[20] = system: M19-MEL melanoma
[21] = system: MALME-3M melanoma
[22] = system: MOLT-4 leukemia
[23] = system: NCI-H226 lung
[24] = system: NCI-H23 lung
[25] = system: NCI-H460 lung
[26] = system: NCI-H522 lung
[27] = system: OVCAR-5 ovarian
[28] = system: OVCAR-8 ovarian
[29] = system: RPMI-8226 leukemia
[30] = system: RXF 393 renal
[31] = system: SF-268 CNS
[32] = system: SF-295 CNS
[33] = system: SF-539 CNS
[34] = system: SK-MEL-2 melanoma
[35] = system: SK-MEL-28 melanoma
[36] = system: SK-MEL-5 melanoma
[37] = system: SK-OV-3 ovarian
[38] = system: SN12C renal
[39] = system: SNB-19 CNS
[40] = system: SNB-75 CNS
[41] = system: SNB-78 CNS
[42] = system: SR leukemia
[43] = system: SW-620 colon
[44] = system: TK-10 renal
[45] = system: U251 CNS
[46] = system: UACC-257 melanoma
[47] = system: UO-31 renal
[48] = system: XF 498 CNS
[49] = system: CAKI-1 renal
[50] = system: COLO 205 colon
[51] = system: DMS 114 small cell lung
[52] = system: DMS 273 small cell lung
[53] = system: HL-60(TB) leukemia
[54] = system: HOP-92 NSCLC
[55] = system: OVCAR-3 ovarian
[56] = system: OVCAR-4 ovarian
[57] = system: UACC-62 melanoma

For Cc1ccc(C2=C(c3ccccc3)C(=O)C(c3ccccc3)=C2c2ccc(C)cc2)cc1, the TGI [1] was > 100 µM, the TGI [2] was > 100 µM and the TGI [3] was > 100 µM. The TGI [4] was > 100 µM, the TGI [5] was 70.5 µM and the TGI [6] was > 100 µM. The TGI [7] was > 100 µM, the TGI [8] was > 100 µM and the TGI [9] was > 100 µM. For the same compound, the TGI [10] was > 100 µM, the TGI [11] was > 100 µM and the TGI [12] was > 100 µM. The TGI [13] was > 100 µM, the TGI [14] was > 100 µM and the TGI [15] was > 100 µM. For the same compound, the TGI [16] was > 100 µM, the TGI [17] was > 100 µM and the TGI [18] was > 100 µM. For the same compound, the TGI [19] was > 100 µM, the TGI [20] was > 100 µM and the TGI [21] was > 100 µM. For the same compound, the TGI [22] was > 100 µM, the TGI [23] was > 100 µM and the TGI [24] was 85.1 µM. For the same compound, the TGI [25] was > 100 µM, the TGI [26] was > 100 µM and the TGI [27] was > 100 µM. The TGI [28] was > 100 µM, the TGI [29] was > 100 µM and the TGI [30] was > 100 µM. For the same compound, the TGI [31] was > 100 µM, the TGI [32] was > 100 µM and the TGI [33] was 46.9 µM. For the same compound, the TGI [34] was > 100 µM, the TGI [35] was 48 µM and the TGI [36] was > 100 µM. The TGI [37] was > 100 µM, the TGI [38] was > 100 µM and the TGI [39] was > 100 µM. The TGI [40] was > 100 µM, the TGI [41] was > 100 µM and the TGI [42] was > 100 µM. The TGI [43] was 95.7 µM, the TGI [44] was > 100 µM and the TGI [45] was > 100 µM. The TGI [46] was > 100 µM, the TGI [47] was > 100 µM and the TGI [48] was > 100 µM.

O=C1OC(CC(=O)c2ccc(Cl)cc2)C(Cl)=C1Cl (stereo not drawn) was tested, and the TGI [1] was > 100 µM, the TGI [2] was > 100 µM and the TGI [3] was > 100 µM. For the same compound, the TGI [4] was > 100 µM, the TGI [49] was > 100 µM and the TGI [5] was > 100 µM. The TGI [50] was > 100 µM, the TGI [6] was > 100 µM and the TGI [51] was > 100 µM. The TGI [52] was > 100 µM, the TGI [7] was > 100 µM and the TGI [8] was > 100 µM. The TGI [9] was > 100 µM, the TGI [10] was > 100 µM and the TGI [53] was 76.9 µM. The TGI [11] was > 100 µM, the TGI [12] was > 100 µM and the TGI [54] was > 100 µM. For the same compound, the TGI [13] was > 100 µM, the TGI [14] was > 100 µM and the TGI [15] was > 100 µM. The TGI [16] was > 100 µM, the TGI [17] was > 100 µM and the TGI [18] was > 100 µM. The TGI [19] was > 100 µM, the TGI [20] was > 100 µM and the TGI [21] was > 100 µM. For the same compound, the TGI [22] was > 100 µM, the TGI [23] was > 100 µM and the TGI [24] was > 100 µM. The TGI [25] was > 100 µM, the TGI [26] was > 100 µM and the TGI [55] was > 100 µM. For the same compound, the TGI [56] was > 100 µM, the TGI [27] was > 100 µM and the TGI [28] was > 100 µM. The TGI [29] was > 100 µM, the TGI [31] was > 100 µM and the TGI [32] was > 100 µM. The TGI [33] was > 100 µM, the TGI [34] was > 100 µM and the TGI [35] was > 100 µM. For the same compound, the TGI [36] was > 100 µM, the TGI [37] was > 100 µM and the TGI [38] was > 100 µM. The TGI [39] was > 100 µM, the TGI [40] was > 100 µM and the TGI [42] was > 100 µM. For the same compound, the TGI [43] was > 100 µM, the TGI [44] was > 100 µM and the TGI [45] was > 100 µM. For the same compound, the TGI [46] was > 100 µM, the TGI [57] was > 100 µM and the TGI [47] was > 100 µM. The TGI [48] was > 100 µM.
